Measurements reported in US10576147B2, “Muramyl peptide derivative compound, synthesis and uses thereof” (BHARAT BIOTECH INTERNATIONAL LIMITED, priority 2015, dated 2020).

How the values were obtained:
[1] = tested on: Peripheral blood mononuclear cells (PBMCs); assay: In-vitro pyrogen test (IL-1β, IL-6, TNF-α by ELISA); type: cell-based
Description: Generally, pyrogenicity of any molecule can be measured by the over production of pro-inflammatory cytokines IL-1β, IL-6, and TNFα, following an activation of monocytes in-vitro, which inturn, could be an indicative of increased reactogenicity in-vivo.
Frozen Peripheral blood mononuclear cells (PBMCs) were revived and plated (0.5×10^6 cells/ml, 100 μl) in 96 well round bottom cell culture plate. Cells were supplemented with RPMI 1640 medium (Gibco Laboratories, Grand Island, N.Y.) containing fetal bovine serum (10%), glutamine (2 mM), and pencillin-streptomycin. Cells further stimulated with LPS (10 ng/ml) or endotoxin (1 EU/ml, 0.5 EU/ml, 0.25 EU/ml, 0.125 EU/ml) or MDP-MN (10 or 100 μg/ml). Cells stimulated with LPS or endotoxin was incubated for 4 hrs where as cells stimulated with MDP derivatives of the present invention kept for incubation in humidified CO2 chamber at 37° C. for 24 hrs. After stimulation, cell culture supernatant was collected and cytokines (such as IL-1β, IL-6 or TNF-α) were measured by ELISA. Concentrations each cytokine produced by PBMCs in the presence of reference standard endotoxin at 0.5 EU/ml was measured in triplicates. Threshold levels were calculated for each cytokine, using the cytokine levels produced by the reference standard endotoxin at 0.5 EU/ml (Marina et al., Vaccine 30 (2012) 4859-4865).
To determine Interleukin 1β, Enzyme Linked Immunosorbent Assay (ELISA) was performed according to the instruction manual (ebioscience, cat#88-7010). Briefly, capture antibody (cat#14-7018-67, eBioscience) was first diluted 1:250 using coating buffer and added 100 μL to each well in 96-well microplate. Plates were incubated overnight at 2-8° C. Coated plates were then washed with wash buffer (PBST). After washing, these plates were blocked using 1× assay diluent for 1 hr at room temperature followed by washing with PBST. A series of 2 fold dilutions were made from top standard ranging from 4 to 500 pg/mL, to make the standard curve. Similarly, 4 fold dilutions (1:4, 1:16 & 1:64) of cell supernatant obtained from PBMCs stimulation with MDP-MN were prepared. Aliquot (100 μL) of diluted standards or cell supernatants were added to well in duplicates and the plate was incubated at room temperature for 2 hrs. After washing the plate, 100 μL/well of detection antibody (cat#33-7016-67) diluted in 1× Assay diluent was added and incubated at room temperature for 1 hr. Later, 100 μL/well of Avidin-HRP* diluted in 1× Assay diluent was added and incubated at room temperature for 30 minutes. Finally, after washes, 100 μL of substrate solution was added to each well and incubated at RT for 15 minutes. Reaction was stopped by the addition of 50 μL of 2N H2SO4 to each well and the plate was read at 450 nm. […]

BALB/c mice = assay: OVA-specific IgG after immunization (indirect ELISA); type: in vivo; conditions: s.c. Days 1 and 15
Description: Male BALB/c mice were immunized subcutaneously with OVA 100 μg alone or with OVA 100 μg dissolved in saline containing analogues (7.5, 15 or 30 μg) on Days 1 and 15. Sera were collected 2 weeks after the last immunization. OVA-specific IgG antibodies in the sera were measured by an Indirect ELISA. The values are presented as log 2 titre.

mouse = assay: rPvRII specific IgG endpoint titer; type: in vivo; conditions: MDP-MN 10 μg/mouse
Wistar rats = assay: Maximum Tolerated Dose test; type: in vivo, rat
Description: Wistar rats (n=6, 3M & 3F) were administered intramuscularly (i.m) with MDP-MN containing fixed adjuvant dose of 10, 50 and 100 μg/animal/200 μl in an ascending manner. Animals were observed daily for a period of 14 days for clinical signs & mortality. Body weight was measured daily. Food and water consumed by animals were also monitored daily for any abnormalities & Food and water intake per animal was also calculated. Body temperature was measured for every 4 hours upto 24 hrs, later once in daily upto 7 days and then followed by alternate day upto day 14. Rats were sacrificed on day 14 and organs/tissues such as site of injection, spleen, thymus, brain, lungs, Heart, liver, Kidney were collected and done macroscopic examination. […] It indicates rats are tolerable even at high dose (100 μg/animal). Blood was collected between 24-36 hrs were tested for CRP levels, after the injection. […] Moreover, absence of pro-inflammatory cytokines, CRP levels indicates, MDP-MN is not pyrogenic.

C[C@H](NC(=O)[C@@H](C)O[C@H]1[C@H](O)[C@@H](CO)OC(O)[C@@H]1NC(=O)[C@H](O)CO)C(=O)N[C@H](CCC(=O)O)C(N)=O (stereo partly drawn) [MDP-MN, (4R)-5-amino-4-((2S)-2-((2R)-2-(((3R,4R,5S,6R)-3-((2,3-dihydroxypropanamido))-2,5-dihydroxy-6-(hydroxymethyl)tetrahydro-2H-pyran-4-yl)oxy)propanamido)propanamido)-5-oxopentanoic acid]
IL-1β level vs threshold ([1]; MDP-MN at both 10 & 100 μg/ml, 24 hrs, (endotoxin 0.5 EU/ml)): within the threshold value
TNF-α level vs threshold ([1]; MDP-MN at both 10 & 100 μg/ml, 24 hrs, threshold 753 μg/ml): within the threshold value
IL-6 level vs threshold ([1]; MDP-MN at both 10 & 100 μg/ml, 24 hrs, threshold 3110 μg/ml): within the threshold value
pyrogenicity ([1]; in-vitro pyrogen test): doesn't cause any pyrogenicity
Log(2) IgG Antibody Titre (BALB/c mice; adjuvant 7.5 μg per mouse with OVA 100 μg): nearly equal antibody titer
Log(2) IgG Antibody Titre (BALB/c mice; adjuvant 15 μg per mouse with OVA 100 μg): highest serum IgG responses
Log(2) IgG Antibody Titre (BALB/c mice; adjuvant 30 μg per mouse with OVA 100 μg): highest serum IgG responses
increase of antibody titer vs rPvRII alone (mouse): 4 fold
tolerated dose (Wistar rats; Wistar rats, i.m., 14 days observation, highest dose tested): 100 μg/animal
CRP levels (Wistar rats; blood 24-36 hrs after injection, high dose (100 μg/animal), normal in rats 200-550 μg/ml): normal
macroscopic examination of organs/tissues (Wistar rats; day 14, site of injection, spleen, thymus, brain, lungs, heart, liver, kidney): No significant lesions or abnormalities
clinical signs (Wistar rats; even at tested high dose (100 μg/animal), 14 days): no significant clinical signs
weight gain (Wistar rats; high dose (100 μg/animal), compared to untreated animals): weight gain is less
mortality (Wistar rats; i.m. 10, 50 and 100 μg/animal, 14 days): no mortality
tolerated dose (Wistar rats; rat, Maximum Tolerated Dose test): ≤ 100 μg/rat
pyrogenicity (conclusion from cytokines and CRP levels) (Wistar rats; rat, in vivo): not pyrogenic
body temperature (Wistar rats; upto 14 days): no temperature raise
